# Measured values taken from PubChem BioAssay (NCI).
#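 Compound exposure: 48 hours, 5 concentrations, 96-well plates. Abbreviation: GI50, concentration required for 50% inhibition of growth. TGI is the concentration that stops growth completely.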
# Key:
# Experiment in all cases: NCI-60 cell line screen, 48 h
# [1] = tested on: NCI/ADR-RES ovarian
# [2] = tested on: T-47D breast
# [3] = tested on: U251 CNS
# [4] = tested on: HCT-15 colon
# [5] = tested on: HL-60(TB) leukemia
# [6] = tested on: MALME-3M melanoma
# [7] = tested on: UACC-257 melanoma
# [8] = tested on: SK-MEL-2 melanoma
# [9] = tested on: OVCAR-4 ovarian
# [10] = tested on: HS 578T breast
# [11] = tested on: A549 NSCLC
# [12] = tested on: LOX IMVI melanoma
# [13] = tested on: SF-295 CNS
# [14] = tested on: MOLT-4 leukemia
# [15] = tested on: MDA-MB-231 breast
# [16] = tested on: OVCAR-5 ovarian
# [17] = tested on: SNB-75 CNS
# [18] = tested on: RPMI-8226 leukemia
# [19] = tested on: PC-3 prostate
# [20] = tested on: ACHN renal
# [21] = tested on: SR leukemia
# [22] = tested on: KM12 colon
# [23] = tested on: HOP-62 NSCLC
# [24] = tested on: NCI-H226 lung
# [25] = tested on: 786-0 renal
# [26] = tested on: IGROV1 ovarian
# [27] = tested on: A498 renal
# [28] = tested on: TK-10 renal
# [29] = tested on: MDA-MB-435
# [30] = tested on: SN12C renal
# [31] = tested on: SF-268 CNS
# [32] = tested on: HT29 colon
# [33] = tested on: CCRF-CEM leukemia
# [34] = tested on: DU-145 prostate
# [35] = tested on: HCC-2998 colon
# [36] = tested on: SW-620 colon
# [37] = tested on: SK-MEL-28 melanoma
# [38] = tested on: SNB-19 CNS
# [39] = tested on: SF-539 CNS
# [40] = tested on: RXF 393 renal
# [41] = tested on: HCT-116 colon
# [42] = tested on: UACC-62 melanoma
# [43] = tested on: K-562 leukemia
# [44] = tested on: NCI-H460 lung
# [45] = tested on: BT-549 breast
# [46] = tested on: UO-31 renal
# [47] = tested on: MCF7 breast
# [48] = tested on: NCI-H522 lung
# [49] = tested on: CAKI-1 renal
# [50] = tested on: SK-MEL-5 melanoma
# [51] = tested on: SK-OV-3 ovarian
# [52] = tested on: EKVX NSCLC
# [53] = tested on: HOP-92 NSCLC
# [54] = tested on: NCI-H23 lung
# [55] = tested on: M14 melanoma
# [56] = tested on: OVCAR-8 ovarian
smiles,measurement,setting,value
COc1ccc2c(c1)C=CC1(O2)Oc2ccc(OC)cc2C=C1C (stereo not given),GI50,[1],397 nM
same,TGI,[1],> 100000 nM
same,GI50,[2],2030 nM
same,TGI,[2],> 65200 nM
same,GI50,[3],456 nM
same,TGI,[3],7860 nM
same,GI50,[4],453 nM
same,TGI,[4],31400 nM
same,GI50,[5],288 nM
same,GI50,[6],33000 nM
same,TGI,[6],> 100000 nM
same,GI50,[7],820 nM
same,TGI,[7],> 48900 nM
same,GI50,[8],392 nM
same,TGI,[8],54000 nM
same,GI50,[9],28800 nM
same,TGI,[9],> 100000 nM
same,GI50,[10],348 nM
same,TGI,[10],> 100000 nM
same,GI50,[11],1000 nM
same,TGI,[11],> 100000 nM
same,GI50,[12],647 nM
same,TGI,[12],8520 nM
same,GI50,[13],384 nM
same,TGI,[13],> 100000 nM
same,GI50,[14],447 nM
same,TGI,[14],> 71600 nM
same,GI50,[15],1160 nM
same,TGI,[15],> 100000 nM
same,GI50,[16],1760 nM
same,TGI,[16],> 100000 nM
same,GI50,[17],273 nM
same,TGI,[17],> 100000 nM
same,GI50,[18],475 nM
same,TGI,[18],> 25400 nM
same,GI50,[19],461 nM
same,TGI,[19],> 41900 nM
same,GI50,[20],673 nM
same,TGI,[20],> 54500 nM
same,GI50,[21],335 nM
same,TGI,[21],22700 nM
same,GI50,[22],506 nM
same,TGI,[22],> 100000 nM
same,GI50,[23],615 nM
same,TGI,[23],> 59200 nM
same,GI50,[24],4410 nM
same,TGI,[24],> 65600 nM
same,GI50,[25],742 nM
same,TGI,[25],> 36200 nM
same,GI50,[26],704 nM
same,TGI,[26],> 100000 nM
same,GI50,[27],251 nM
same,TGI,[27],1060 nM
same,GI50,[28],7810 nM
same,TGI,[28],> 100000 nM
same,GI50,[29],222 nM
same,TGI,[29],545 nM
same,GI50,[30],800 nM
same,TGI,[30],> 55900 nM
same,GI50,[31],1810 nM
same,TGI,[31],> 100000 nM
same,GI50,[32],345 nM
same,TGI,[32],1620 nM
same,GI50,[33],366 nM
same,TGI,[33],4080 nM
same,GI50,[34],1130 nM
same,TGI,[34],> 100000 nM
same,GI50,[35],1350 nM
same,TGI,[35],7360 nM
same,GI50,[36],380 nM
same,TGI,[36],16700 nM
same,GI50,[37],4800 nM
same,TGI,[37],> 81900 nM
same,GI50,[38],598 nM
same,TGI,[38],> 100000 nM
same,GI50,[39],396 nM
same,TGI,[39],3020 nM
same,GI50,[40],432 nM
same,TGI,[40],17700 nM
same,GI50,[41],509 nM
same,TGI,[41],> 24200 nM
same,GI50,[42],390 nM
same,TGI,[42],> 32900 nM
same,GI50,[43],358 nM
same,TGI,[43],> 100000 nM
same,GI50,[44],422 nM
same,TGI,[44],2050 nM
same,GI50,[45],332 nM
same,TGI,[45],1690 nM
same,GI50,[46],1310 nM
same,TGI,[46],> 46900 nM
same,GI50,[47],652 nM
same,TGI,[47],> 100000 nM
same,GI50,[48],303 nM
same,TGI,[48],24100 nM
same,GI50,[49],632 nM
same,TGI,[49],> 100000 nM
same,GI50,[50],695 nM
same,TGI,[50],13500 nM
same,GI50,[51],538 nM
same,TGI,[51],> 100000 nM
same,GI50,[52],1820 nM
same,TGI,[52],> 100000 nM
same,GI50,[53],189 nM
same,TGI,[53],930 nM
same,GI50,[54],1370 nM
same,TGI,[54],> 100000 nM
same,GI50,[55],402 nM
same,GI50,[56],944 nM
same,TGI,[56],4560 nM
